*1 amine or outer side, *2 acyl side, *3 side chain or, on linkers, in order; H or OH if unused. Where a SMILES comes first, the peptide text is derived from it. Bridges are numbered along the chain shown (N, C = ends). [ ]: non-standard residue; d: D form. Trp(5-Cl) = N[C@@H](Cc1c[nH]c2ccc(Cl)cc12)C(=O)O; Phe(3,4-Cl2) = N[C@@H](Cc1ccc(Cl)c(Cl)c1)C(=O)O; Pyridine(2,6-diCH2) = c1cc(C[*:1])nc(C[*:2])c1; Thz(5,5-Me2) = CC1(C)SCN[C@@H]1C(=O)O; Glutaryl = O=C(CCCC(=O)[*:2])[*:1]; Ser(ΨH,HPro) = O=C(O)[C@@H]1COCN1; Hyp = O=C(O)[C@@H]1C[C@@H](O)CN1; NMeE = CN[C@@H](CCC(=O)O)C(=O)O; Thp = NC1(C(=O)O)CCOCC1
Biological target: T1, GIPR (CHO-K1-hGIPR cells) (Homo sapiens, UniProt P48546)
T1 construct: host or cells: CHO-K1
T1 sequence (P48546 22-466): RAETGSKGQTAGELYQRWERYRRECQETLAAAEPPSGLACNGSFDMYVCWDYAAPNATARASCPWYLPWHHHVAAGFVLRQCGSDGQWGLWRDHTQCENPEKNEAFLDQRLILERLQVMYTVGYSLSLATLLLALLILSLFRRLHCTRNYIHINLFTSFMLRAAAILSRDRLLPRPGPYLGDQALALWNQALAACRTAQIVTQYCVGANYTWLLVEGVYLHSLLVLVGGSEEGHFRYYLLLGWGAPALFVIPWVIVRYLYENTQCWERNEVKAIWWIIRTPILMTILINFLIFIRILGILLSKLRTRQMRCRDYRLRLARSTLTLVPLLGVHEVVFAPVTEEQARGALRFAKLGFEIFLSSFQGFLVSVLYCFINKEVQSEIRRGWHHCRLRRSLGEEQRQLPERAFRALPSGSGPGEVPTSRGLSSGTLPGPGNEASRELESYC
Assay: FACS binding assay
Conditions: competition with 20 nM GIP-057, 4° C., 1 hour, read-out: pIC50 Category (converted)
Summary of the method: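 Read-out: flow cytometric median fluorescence intensity, APC/Cy5 channel, plotted vs peptide conc.; 4PL fit → EC50/pEC50 or IC50/pIC50. Cells: CHO-K1-hGIPR, Accutase-detached, 500.000/mL in PBS + 1% FCS. Detection: APC-streptavidin 1 μg/mL, 30 min, on ice.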

Structure (SMILES) | IC50 [nM]
CC[C@H](C)[C@@H]1NC(=O)[C@H](CC(C)C)NC(=O)C2(CCOCC2)NC(=O)[C@@H](NC(=O)[C@@H](CC(C)C)NC(=O)[C@H](CCC(=O)O)NC(=O)[C@@H]2C[C@@H](O)CN2C(=O)[C@H](Cc2ccc(Cl)c(Cl)c2)NC(=O)[C@H](Cc2c[nH]c3ccccc23)NC(=O)[C@H](CC(=O)O)NC(C)=O)CSCc2cccc(n2)CSC[C@@H](C(N)=O)NC1=O [GIP-213, Ac-Asp-Trp-Eaa-Hyp-Glu-leu-[Cys(2Lut)-Thp-Leu-Ile-Cys]-NH2] (Ac-DW[Phe(3,4-Cl2)][Hyp]E[dL]C[Thp]LIC-NH2; linker 7-11 via Pyridine(2,6-diCH2)) | < 10
CC[C@H](C)[C@@H]1NC(=O)[C@H](CC(C)C)NC(=O)C2(CCOCC2)NC(=O)[C@@H](NC(=O)[C@@H](CC(C)C)NC(=O)[C@H](CCC(=O)O)NC(=O)[C@@H]2C[C@@H](O)CN2C(=O)[C@H](Cc2c[nH]c3ccc(Cl)cc23)NC(=O)[C@H](Cc2c[nH]c3ccccc23)NC(=O)CCCC(=O)O)CSCc2cccc(n2)CSC[C@@H](C(N)=O)NC1=O [GIP-214, HO-Glutar-Trp-5Clw-Hyp-Glu-leu-[Cys(2Lut)-Thp-Leu-Ile-Cys]-NH2] (Glutaryl-W[Trp(5-Cl)][Hyp]E[dL]C[Thp]LIC-NH2; linker 6-10 via Pyridine(2,6-diCH2)) | < 10
CC[C@H](C)[C@@H]1NC(=O)[C@H](CC(C)C)NC(=O)C2(CCOCC2)NC(=O)[C@@H](NC(=O)[C@@H](CC(C)C)NC(=O)[C@H](CCC(=O)O)NC(=O)[C@H]2N(C(=O)[C@H](Cc3c[nH]c4ccc(Cl)cc34)NC(=O)[C@H](Cc3c[nH]c4ccccc34)NC(=O)[C@H](CC(=O)O)NC(C)=O)CSC2(C)C)CSCc2cccc(n2)CSC[C@@H](C(N)=O)NC1=O [GIP-215, Ac-Asp-Trp-5Clw-Dtc-Glu-leu-[Cys(2Lut)-Thp-Leu-Ile-Cys]-NH2] (Ac-DW[Trp(5-Cl)][Thz(5,5-Me2)]E[dL]C[Thp]LIC-NH2; linker 7-11 via Pyridine(2,6-diCH2)) | < 10
CC[C@H](C)[C@@H]1NC(=O)[C@H](CC(C)C)NC(=O)C2(CCOCC2)NC(=O)[C@@H](NC(=O)[C@@H](CC(C)C)NC(=O)[C@H](CCC(=O)O)NC(=O)[C@@H]2COCN2C(=O)[C@H](Cc2c[nH]c3ccc(Cl)cc23)NC(=O)[C@H](Cc2c[nH]c3ccccc23)NC(=O)[C@H](CC(=O)O)NC(C)=O)CSCc2cccc(n2)CSC[C@@H](C(N)=O)NC1=O [GIP-216, Ac-Asp-Trp-5Clw-Oxa-Glu-leu-[Cys(2Lut)-Thp-Leu-Ile-Cys]-NH2] (Ac-DW[Trp(5-Cl)][Ser(ΨH,HPro)]E[dL]C[Thp]LIC-NH2; linker 7-11 via Pyridine(2,6-diCH2)) | < 10
CC[C@H](C)[C@@H]1NC(=O)[C@H](CC(C)C)NC(=O)C2(CCOCC2)NC(=O)[C@@H](NC(=O)[C@H](CC(C)C)NC(=O)[C@H](CCC(=O)O)N(C)C(=O)[C@@H]2C[C@@H](O)CN2C(=O)[C@H](Cc2c[nH]c3ccc(Cl)cc23)NC(=O)[C@H](Cc2c[nH]c3ccccc23)NC(=O)[C@H](CC(=O)O)NC(C)=O)CSCc2cccc(n2)CSC[C@@H](C(N)=O)NC1=O [GIP-217, Ac-Asp-Trp-5Clw-Hyp-Nme-Leu-[Cys(2Lut)-Thp-Leu-Ile-Cys]-NH2] (Ac-DW[Trp(5-Cl)][Hyp][NMeE]LC[Thp]LIC-NH2; linker 7-11 via Pyridine(2,6-diCH2)) | < 10
CC[C@H](C)[C@@H]1NC(=O)[C@H](CC(C)C)NC(=O)C2(CCOCC2)NC(=O)[C@@H](NC(=O)[C@@H](NC(=O)[C@H](CCC(=O)O)NC(=O)[C@@H]2C[C@@H](O)CN2C(=O)[C@H](Cc2c[nH]c3ccc(Cl)cc23)NC(=O)[C@H](Cc2c[nH]c3ccccc23)NC(=O)[C@H](CC(=O)O)NC(C)=O)[C@@H](C)CC)CSCc2cccc(n2)CSC[C@@H](C(N)=O)NC1=O [GIP-218, Ac-Asp-Trp-5Clw-Hyp-Glu-Ile-[Cys(2Lut)-Thp-Leu-Ile-Cys]-NH2] (Ac-DW[Trp(5-Cl)][Hyp]EIC[Thp]LIC-NH2; linker 7-11 via Pyridine(2,6-diCH2)) | < 10

Reference: patent publication US20250296971A1, “GASTRIC INHIBITORY PEPTIDE RECEPTOR LIGANDS” (priority 2021, published 2025)
